Source: ChEMBL document CHEMBL1153294, “The use of oxadiazole and triazole substituted naphthyridines as HIV-1 integrase inhibitors. Part 1: Establishing the pharmacophore” (Bioorg Med Chem Lett, 2009)

Assays:
[1] = molecular target: Human immunodeficiency virus type 1 integrase (Human immunodeficiency virus 1, UniProt Q7ZJM1); experiment: Inhibition of HIV1 recombinant integrase strand transfer activity
[2] = system: Human immunodeficiency virus; experiment: Antiviral activity against HIV by pseudo-type HIV assay; format: functional, organism-based; conditions: Human immunodeficiency virus 1

Chain of Human immunodeficiency virus type 1 integrase (Q7ZJM1 whole entry): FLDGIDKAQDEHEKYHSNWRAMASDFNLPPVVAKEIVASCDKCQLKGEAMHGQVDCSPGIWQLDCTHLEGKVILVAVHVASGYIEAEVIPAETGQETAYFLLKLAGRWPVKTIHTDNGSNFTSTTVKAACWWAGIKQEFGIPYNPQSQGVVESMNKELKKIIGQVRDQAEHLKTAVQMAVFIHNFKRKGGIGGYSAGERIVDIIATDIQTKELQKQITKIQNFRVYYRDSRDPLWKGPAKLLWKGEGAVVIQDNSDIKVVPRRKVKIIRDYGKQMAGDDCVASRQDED

| Compound | IC50 [1] | EC50 [2] |
| --- | --- | --- |
| O=C(NCc1ccc(F)cc1)c1ncc2cccnc2c1O | 12 nM | 75 nM |
| O=C(NCc1ccc(F)cc1)c1nc(N2CCCCS2(=O)=O)c2cccnc2c1O |  | 2 nM |
| O=S1(=O)CCCCN1c1nc(-c2nnc(Cc3ccc(F)cc3)[nH]2)c(O)c2ncccc12 | 11 nM | 240 nM |
| Cn1nc(Cc2ccc(F)cc2)nc1-c1ncc2cccnc2c1O | > 500000 nM |  |
| O=S1(=O)CCCCN1c1nc(-c2noc(Cc3ccc(F)cc3)n2)c(O)c2ncccc12 | > 100000 nM |  |
| O=S1(=O)CCCCN1c1nc(-c2nnc(Cc3ccc(F)cc3)o2)c(O)c2ncccc12 | 2 nM | 13 nM |
| Oc1c(-c2noc(Cc3ccc(F)cc3)n2)ncc2cccnc12 | 130 nM | 220 nM |
| Oc1c(-c2nnc(Cc3ccccc3)[nH]2)ncc2cccnc12 | 360 nM | 8700 nM |
| Oc1c(-c2nnc(Cc3ccncc3)[nH]2)ncc2cccnc12 | 4600 nM | > 35000 nM |
| Oc1c(-c2nnc(Cc3cccc(Cl)c3)[nH]2)ncc2cccnc12 | 1030 nM | 1000 nM |
| COc1cccc(Cc2nnc(-c3ncc4cccnc4c3O)[nH]2)c1 | 2800 nM | > 35000 nM |
| Oc1c(-c2nnc(CCc3ccccc3)[nH]2)ncc2cccnc12 | 2400 nM | > 20000 nM |
| Oc1c(-c2nnc(Cc3ccc(F)cc3)o2)ncc2cccnc12 | 42 nM | 130 nM |
| Cn1nc(-c2ncc3cccnc3c2O)nc1Cc1ccc(F)cc1 | 7900 nM |  |
| Oc1c(-c2noc(-c3ccccc3)n2)ncc2cccnc12 | > 100000 nM |  |
| Oc1c(-c2noc(Cc3ccccc3)n2)ncc2cccnc12 | 950 nM | 1900 nM |
| Oc1c(-c2nnc(Cc3ccc(F)cc3)[nH]2)ncc2cccnc12 | 130 nM | 320 nM |
| Oc1c(-c2nnc(Cc3cccnc3)[nH]2)ncc2cccnc12 | 3500 nM | 6400 nM |
| Oc1c(-c2nnc(Cc3ccc(Cl)cc3)[nH]2)ncc2cccnc12 | 640 nM | 1000 nM |
| COc1ccc(Cc2nnc(-c3ncc4cccnc4c3O)[nH]2)cc1OC | 6300 nM | > 35000 nM |
| Oc1c(-c2nnc(Cc3ccccc3)o2)ncc2cccnc12 | 130 nM | 420 nM |
